How the values were obtained:
[1] = target: T1, Mammalian PARP, isolated from Hela cell nuclear extract (Homo sapiens, UniProt P09874); assay: PARP inhibition assay (FlashPlate, 3H-NAD incorporation); assay type: biochemical; conditions: PARP enzyme activity; NAD 5 μM, 30° C., 45 minutes
T1 construct: isolated from Hela cell nuclear extract; endogenous in cells; host or cells: HeLa cell nuclear extract
Method: In order to assess the inhibitory action of compound 1, the following assay was used to determine the IC50 value.
Mammalian PARP, isolated from Hela cell nuclear extract, was incubated with Z-buffer (25 mM Hepes (Sigma); 12.5 mM MgCl2 (Sigma); 50 mM KCl (Sigma); 1 mM DTT (Sigma); 10% Glycerol (Sigma) 0.001% NP-40 (Sigma); pH 7.4) in 96 well FlashPlates (TRADE MARK) (NEN, UK) and varying concentrations of said inhibitors added. The compound was diluted in DMSO and gave final assay concentrations of between 10 and 0.01 μM, with the DMSO being at a final concentration of 1% per well. The total assay volume per well was 40 μl.
After 10 minutes incubation at 30° C. the reactions were initiated by the addition of a 10 μl reaction mixture, containing NAD (5 μM), ^3H-NAD and 30 mer double stranded DNA-oligos. Designated positive and negative reaction wells were done in combination with compound wells (unknowns) in order to calculate % enzyme activities. The plates were then shaken for 2 minutes and incubated at 30° C. for 45 minutes. […]
The plates were transferred to a TopCount NXT (TRADE MARK) (Packard, UK) for scintillation counting. Values recorded are counts per minute (cpm) following a 30 second counting of each well.
The % enzyme activity for the compound is then calculated using the following equation: […]

[2] = system: HeLa cells; assay: Potentiation Factor (PF50): MMS growth inhibition, SRB assay; assay type: cell-based; conditions: MMS 0 to 10 μg/ml, ratio of IC50 of control cell growth to IC50 of cell growth + PARP inhibitor
Method: The Potentiation Factor (PF50) for compounds is calculated as a ratio of the IC50 of control cell growth divided by the IC50 of cell growth+PARP inhibitor. Growth inhibition curves for both control and compound treated cells are in the presence of the alkylating agent methyl methanesulfonate (MMS). The test compound was used at a fixed concentration of 30 nM and 200 nM. The concentrations of MMS were over a range from 0 to 10 μg/ml. Cell growth was assessed using the sulforhodamine B (SRB) assay (Skehan, P., et al., (1990) New colorimetric cytotoxicity assay for anticancer-drug screening. J. Natl. Cancer Inst. 82, 1107-1112.). 2,000 HeLa cells were seeded into each well of a flat-bottomed 96-well microtiter plate in a volume of 100 μl and incubated for 6 hours at 37° C. Cells were either replaced with media alone or with media containing PARP inhibitor at a final concentration of 30 nM or 200 nM. Cells were allowed to grow for a further 1 hour before the addition of MMS at a range of concentrations (typically 0, 1, 2, 3, 5, 7 and 10 μg/ml) to either untreated cells or PARP inhibitor treated cells. Cells treated with PARP inhibitor alone were used to assess the growth inhibition by the PARP inhibitor. […] Plates were gently shaken and left at room temperature for 30 minutes before measuring the optical density at 564 nm on a Microquant microtiter plate reader.

[3] = target: T2, P-glycoprotein (Homo sapiens, UniProt P08183); assay: P-gp substrate activity: Dose Modification Ratio in KBA1 cells with/without Verapamil, SRB assay; assay type: in vitro ADME; conditions: IC50 in absence of Verapamil divided by IC50 in presence of 20 μM Verapamil, 5 days, DMR <1.5 = not a P-gp substrate
T2 construct: Hela cell line known as KBA1, which expressed high P-glycoprotein; endogenous in cells; host or cells: KBA1 cells (HeLa-derived, high P-gp); matched non-expressing line KB31
T2 sequence (P08183 whole entry): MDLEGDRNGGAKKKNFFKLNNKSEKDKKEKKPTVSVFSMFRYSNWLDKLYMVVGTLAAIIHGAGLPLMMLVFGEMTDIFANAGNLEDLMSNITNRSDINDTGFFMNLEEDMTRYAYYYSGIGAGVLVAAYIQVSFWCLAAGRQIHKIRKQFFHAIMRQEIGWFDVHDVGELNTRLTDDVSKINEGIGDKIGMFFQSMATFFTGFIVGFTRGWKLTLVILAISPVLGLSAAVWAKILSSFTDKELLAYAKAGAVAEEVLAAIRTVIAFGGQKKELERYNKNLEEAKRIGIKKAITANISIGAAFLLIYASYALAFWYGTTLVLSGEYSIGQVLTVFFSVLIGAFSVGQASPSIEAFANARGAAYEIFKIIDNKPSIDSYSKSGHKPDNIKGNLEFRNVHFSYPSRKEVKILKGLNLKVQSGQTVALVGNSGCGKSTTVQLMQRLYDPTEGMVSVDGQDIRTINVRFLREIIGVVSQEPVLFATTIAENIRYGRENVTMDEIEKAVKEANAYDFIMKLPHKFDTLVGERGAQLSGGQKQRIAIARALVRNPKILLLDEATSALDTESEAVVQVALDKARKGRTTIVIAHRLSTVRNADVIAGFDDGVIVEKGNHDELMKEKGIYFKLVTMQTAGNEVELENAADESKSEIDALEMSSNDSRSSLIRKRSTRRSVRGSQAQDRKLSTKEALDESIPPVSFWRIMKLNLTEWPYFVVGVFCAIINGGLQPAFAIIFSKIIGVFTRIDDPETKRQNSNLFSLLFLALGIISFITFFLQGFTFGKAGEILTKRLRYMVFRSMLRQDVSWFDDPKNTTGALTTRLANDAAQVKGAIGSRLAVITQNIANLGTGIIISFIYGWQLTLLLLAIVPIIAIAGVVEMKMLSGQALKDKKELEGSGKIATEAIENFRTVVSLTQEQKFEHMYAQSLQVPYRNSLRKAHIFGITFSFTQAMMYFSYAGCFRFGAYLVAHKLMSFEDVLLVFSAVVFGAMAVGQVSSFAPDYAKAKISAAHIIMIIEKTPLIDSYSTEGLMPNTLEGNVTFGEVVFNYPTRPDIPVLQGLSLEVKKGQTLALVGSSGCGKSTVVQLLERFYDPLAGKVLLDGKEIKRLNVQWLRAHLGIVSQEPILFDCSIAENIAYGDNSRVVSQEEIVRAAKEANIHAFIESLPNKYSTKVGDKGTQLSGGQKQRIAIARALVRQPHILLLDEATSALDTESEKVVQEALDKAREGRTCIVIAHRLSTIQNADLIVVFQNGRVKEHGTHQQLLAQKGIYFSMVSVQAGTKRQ
Method: Cells from the Hela cell line known as KBA1, which expressed high P-glycoprotein (ABC1a and ABC1b transporter glycoproteins also known as MDR1a and MDR1b) and the matched non-P-glycoprotein expressing line known as KB31, were seeded onto 96 well tissue culture plates with 80 μl per well of 1.00×10^4 cells/ml=800 cells/well [DMEM, 10% FBS, PSG] and left to adhere for 4 hours. After the incubation period 10 μl per well of 200 μM Verapamil (giving a final conc. of 20 μM) a known inhibitor of P-gp or vehicle media were added to various wells of the cell plates. The 96 well plates were left in the incubator for 1 hour prior to 10 μl of test compound (or the known substrate Etoposide as a reference control) or 10 μl PBS/1% DMSO vehicle (control wells) being added into either Verapamil containing or media control wells. […]
The cell plates were then incubated for 5 days prior to cell growth being assessed using the Sulforhodamine B (SRB) assay as described previously. The P-gp substrate activity for each compound was calculated using the cell growth activity of the tests compounds on the KBA1 cells in the presence or absence (control wells) of Verapamil. The Dose Modification Ratio (DMR) is calculated from the KBA1 where for each test compound a ratio of the IC50 of the compound in the absence of Verapamil is divided by the IC50 of cell growth in the presence of Verapamil. […]

T1 sequence (P09874 whole entry): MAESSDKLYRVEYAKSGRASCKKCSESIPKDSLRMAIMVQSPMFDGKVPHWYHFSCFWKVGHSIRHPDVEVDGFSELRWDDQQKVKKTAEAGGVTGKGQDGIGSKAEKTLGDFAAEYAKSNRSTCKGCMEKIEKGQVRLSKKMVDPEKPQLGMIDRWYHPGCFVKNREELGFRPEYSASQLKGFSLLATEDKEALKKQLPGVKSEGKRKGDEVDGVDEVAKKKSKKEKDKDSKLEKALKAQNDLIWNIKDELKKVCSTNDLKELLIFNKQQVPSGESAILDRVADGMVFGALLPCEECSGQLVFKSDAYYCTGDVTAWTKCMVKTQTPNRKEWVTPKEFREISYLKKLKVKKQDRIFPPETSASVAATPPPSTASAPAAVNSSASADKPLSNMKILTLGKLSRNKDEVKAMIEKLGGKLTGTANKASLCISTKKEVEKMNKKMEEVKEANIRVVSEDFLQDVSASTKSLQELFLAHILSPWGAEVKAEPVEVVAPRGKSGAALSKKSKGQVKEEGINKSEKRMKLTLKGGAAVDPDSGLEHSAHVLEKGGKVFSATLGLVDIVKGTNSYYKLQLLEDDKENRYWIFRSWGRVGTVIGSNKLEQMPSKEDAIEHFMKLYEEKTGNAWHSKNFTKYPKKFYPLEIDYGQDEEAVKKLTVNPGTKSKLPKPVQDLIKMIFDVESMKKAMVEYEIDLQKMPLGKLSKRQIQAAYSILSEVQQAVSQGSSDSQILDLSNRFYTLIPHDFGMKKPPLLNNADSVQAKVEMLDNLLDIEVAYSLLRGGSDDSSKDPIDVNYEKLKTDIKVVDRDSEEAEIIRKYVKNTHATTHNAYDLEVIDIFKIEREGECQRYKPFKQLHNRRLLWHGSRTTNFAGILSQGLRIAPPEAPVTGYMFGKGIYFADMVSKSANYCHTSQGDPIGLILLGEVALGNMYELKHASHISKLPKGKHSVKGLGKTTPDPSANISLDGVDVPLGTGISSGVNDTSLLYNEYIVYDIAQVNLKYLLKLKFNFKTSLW

## COC1CCN(C(=O)c2cc(Cc3n[nH]c(=O)c4ccccc34)ccc2F)CC1 [Compound 1, 4-(4-Fluoro-3-(4-methoxypiperidine-1-carbonyl)benzyl)phthalazin-1(2H)-one]
[1]
  IC50: ~5 nM
[2]; test compound fixed at 30 nM
  PF50 at 30 nM: 3.0
[2]; test compound fixed at 200 nM
  PF50 at 200 nM: 15
[3]
  Dose Modification Ratio (DMR): 1.3
